According to article PMC7015663 (Journal of the American Chemical Society, 2019):
Like-named read-outs stand apart in the source and are kept apart here. Blank lines part the entries; values can stand above or below the molecule they belong to.

Columns and labels:
RNase A [1] = biological target: T1, RNase A (Bos taurus, UniProt P61823); assay: Inhibition kinetics of RNase A using a fluorogenic substrate; type: biochemical, bovine; details: ± standard error of fitting one-site binding equation; this work
T1 sequence (P61823 27-150): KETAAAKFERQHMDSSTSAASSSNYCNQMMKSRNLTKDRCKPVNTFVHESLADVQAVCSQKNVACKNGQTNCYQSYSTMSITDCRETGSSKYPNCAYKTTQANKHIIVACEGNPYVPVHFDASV

RNase A [2] = biological target: T1, RNase A; details: cited from earlier work
RNase A [3] = biological target: T1, RNase A; assay: Salt dependence of inhibition/binding of RNase A; type: biochemical, bovine; details: salt dependence of inhibition (Figure S30)

- Ki (RNase A [1]): 2.1 ± 0.2 µM
Structure (SMILES): Nc1ncnc2c1ncn2[C@@H]1O[C@H](COP(=O)(O)OP(=O)(O)OP(=O)(O)OP(=O)(O)O)[C@@H](O)[C@H]1O [p4A, adenosine tetraphosphate]

- Ki (RNase A [1]): 1.4 ± 0.06 µM
Structure (SMILES): Nc1ncnc2c1ncn2[C@@H]1O[C@H](COP(=O)(O)OP(=O)(O)OP(=O)(O)OP(=O)(O)OP(=O)(O)O)[C@@H](O)[C@H]1O [p5A]

Structure (SMILES): Nc1ncnc2c1ncn2[C@@H]1O[C@H](COP(=O)(O)OP(=O)(O)OP(=O)(O)O)[C@@H](O)[C@H]1O [p3A]
- Ki (RNase A [2]; ref [10]): 0.86 µM

- Ki (RNase A [1]): 0.48 ± 0.03 µM
Structure (SMILES): Nc1ncnc2c1ncn2C1OC(COP(=O)(O)OP2(=O)OP(=O)(O)OP(=O)(O)OP(=O)(O)O2)C(O)C1O (stereo not drawn) [cp4pA]

- Ki (RNase A [1]): 1.8 ± 0.1 µM
Structure (SMILES): O=c1ccn([C@@H]2O[C@H](COP(=O)(O)OP(=O)(O)OP(=O)(O)OP(=O)(O)O)[C@@H](O)[C@H]2O)c(=O)[nH]1 [p4U, uridine tetraphosphate]

Structure (SMILES): O=c1ccn([C@@H]2O[C@H](COP(=O)(O)OP(=O)(O)O)[C@@H](O)[C@H]2O)c(=O)[nH]1 [p2U]
- Ki (RNase A [2]; ref [43]): 650 µM

- Ki (RNase A [1]): 170 ± 6 µM
Structure (SMILES): Nc1ncnc2c1ncn2[C@@H]1O[C@H](COP(=O)(O)O)[C@@H](O)[C@H]1O [pA]

Structure (SMILES): Cc1cn([C@H]2C[C@H](OP(=O)(O)OP(=O)(O)OC[C@H]3O[C@@H](n4cnc5c(N)ncnc54)C[C@@H]3O)[C@@H](CO)O2)c(=O)[nH]c1=O [TppdA]
- Ki (RNase A [2]; ref [7]): 4 µM

- Ki (RNase A [1]): 0.98 ± 0.07 µM
Structure (SMILES): O=c1ccn(C2OC(COP(=O)(O)OP3(=O)OP(=O)(O)OP(=O)(O)OP(=O)(O)O3)C(O)C2O)c(=O)[nH]1 (stereo not drawn) [cp4pU]

Structure (SMILES): Nc1ncnc2c1ncn2[C@@H]1O[C@H](COP(=O)(O)OP(=O)(O)O)[C@@H](O)[C@H]1O [p2A]
- Ki (RNase A [2]; ref [41]): 1.2 µM

Structure (SMILES): O=P(O)(O)O [Pi, orthophosphate]
- Ki (RNase A [2]; ref [40]): 4600 µM

Structure (SMILES): Nc1ncnc2c1ncn2[C@@H]1O[C@H](COP(=O)(O)OP(=O)(O)OP(=O)(O)OC[C@H]2O[C@@H](n3cnc4c(N)ncnc43)[C@H](O)[C@@H]2O)[C@@H](O)[C@H]1O [Ap3A]
- Ki (RNase A [2]; ref [10]): 29 µM

- Ki (RNase A [1]): 960 ± 80 µM
Structure (SMILES): O=P1(O)OP(=O)(O)OP(=O)(O)O1 [cP3i, trimetaphosphate]

Structure (SMILES): Nc1ncnc2c1ncn2[C@@H]1O[C@H](COP(=O)(O)OP(=O)(O)OP(=O)(O)OP(=O)(O)OC[C@H]2O[C@@H](n3cnc4c(N)ncnc43)[C@H](O)[C@@H]2O)[C@@H](O)[C@H]1O [Ap4A]
- Ki (RNase A [2]; ref [10]): 2.6 µM

Structure (SMILES): Nc1ncnc2c1ncn2[C@@H]1O[C@H](COP(=O)(O)OP(=O)(O)O)[C@@H](OP(=O)(O)O)[C@H]1O [ppAp]
- Ki (RNase A [2]; ref [7]): 0.24 µM

- Ki (RNase A [1]): 30 ± 0.8 µM
Structure (SMILES): O=P1(O)OP(=O)(O)OP(=O)(O)OP(=O)(O)O1 [cP4i, tetrametaphosphate]

- δlogKd/δlog[Na+] (RNase A [3]): 3.2
- Ki (RNase A [1]): 0.068 ± 0.007 µM
Structure (SMILES): O=c1ccn([C@@H]2O[C@H](COP(=O)(O)OP(=O)(O)OP(=O)(O)OP(=O)(O)OP(=O)(O)O)[C@@H](O)[C@H]2O)c(=O)[nH]1 [p5U]

Structure (SMILES): Nc1ncnc2c1ncn2[C@@H]1O[C@H](COP(=O)(O)OP(=O)(O)O[C@H]2C[C@H](n3ccc(=O)[nH]c3=O)O[C@@H]2CO)[C@@H](OP(=O)(O)O)[C@H]1O [dUppAp]
- Ki (RNase A [2]; ref [7]): 0.12 µM

- Ki (RNase A [1]): 23 ± 1 µM
Structure (SMILES): O=P(O)(O)OP(=O)(O)OP(=O)(O)O [P3i]

- Ki (RNase A [1]): 8.3 ± 0.3 µM
Structure (SMILES): O=c1ccn([C@@H]2O[C@H](COP(=O)(O)OP(=O)(O)OP(=O)(O)O)[C@@H](O)[C@H]2O)c(=O)[nH]1 [p3U]

- Ki (RNase A [1]): 6.2 ± 0.1 µM
Structure (SMILES): O=P1(O)OP(=O)(O)OP(=O)(O)OP(=O)(O)OP(=O)(O)OP(=O)(O)O1 [cP6i, hexametaphosphate]

Structure (SMILES): Nc1ncnc2c1ncn2C1OC(COP(=O)(O)OP(=O)(O)OC2CC(n3ccc(=O)[nH]c3=O)OC2COP(=O)(O)O)C(OP(=O)(O)O)C1O (stereo not drawn) [pdUppAp]
- Ki (RNase A [2]; ref [7]): 0.027 µM

Structure (SMILES): O=c1ccn([C@@H]2O[C@H](COP(=O)(O)O)[C@@H](O)[C@H]2O)c(=O)[nH]1 [pU]
- Ki (RNase A [2]; ref [42]): 4000 µM

Structure (SMILES): Cc1cn(C2CC(OP(=O)(O)OP(=O)(O)OCC3OC(n4cnc5c(N)ncnc54)C(O)C3OP(=O)(O)O)C(COP(=O)(O)O)O2)c(=O)[nH]c1=O (stereo not drawn) [pdTppAp]
- Ki (RNase A [2]; ref [7]): 0.041 µM

Structure (SMILES): O=P(O)(O)OP(=O)(O)O [P2i, pyrophosphate]
- Ki (RNase A [2]; ref [40]): 170 µM

Structure (SMILES): Nc1ncnc2c1ncn2[C@@H]1O[C@H](COP(=O)(O)OP(=O)(O)OP(=O)(O)OP(=O)(O)OP(=O)(O)OC[C@H]2O[C@@H](n3cnc4c(N)ncnc43)[C@H](O)[C@@H]2O)[C@@H](O)[C@H]1O [Ap5A]
- Ki (RNase A [2]; ref [10]): 0.23 µM
